Each block holds one compound with its values, some of them ahead of it.
Key:
Assay type in all cases: functional, cell-based
[1] = target: T1, ATP-dependent translocase ABCB1 (Homo sapiens, UniProt P08183); test: TP_TRANSPORTER: inhibition of Rhodamine 123 efflux (R123: 10 uM, C6-GalCer: 20 uM) in 2780AD cells
[2] = target: T1, ATP-dependent translocase ABCB1; test: TP_TRANSPORTER: inhibition of Rhodamine 123 efflux (R123: 10 uM, C6-SM: 10 uM) in 2780AD cells
[3] = target: T1, ATP-dependent translocase ABCB1; test: TP_TRANSPORTER: inhibition of Rhodamine 123 efflux (R123: 10 uM, C6-GlcCer: 20 uM) in 2780AD cells
[4] = target: T1, ATP-dependent translocase ABCB1; test: TP_TRANSPORTER: inhibition of Rhodamine 123 efflux (R123: 10 uM, C6-LacCer: 20 uM) in 2780AD cells

T1 sequence (P08183 whole entry): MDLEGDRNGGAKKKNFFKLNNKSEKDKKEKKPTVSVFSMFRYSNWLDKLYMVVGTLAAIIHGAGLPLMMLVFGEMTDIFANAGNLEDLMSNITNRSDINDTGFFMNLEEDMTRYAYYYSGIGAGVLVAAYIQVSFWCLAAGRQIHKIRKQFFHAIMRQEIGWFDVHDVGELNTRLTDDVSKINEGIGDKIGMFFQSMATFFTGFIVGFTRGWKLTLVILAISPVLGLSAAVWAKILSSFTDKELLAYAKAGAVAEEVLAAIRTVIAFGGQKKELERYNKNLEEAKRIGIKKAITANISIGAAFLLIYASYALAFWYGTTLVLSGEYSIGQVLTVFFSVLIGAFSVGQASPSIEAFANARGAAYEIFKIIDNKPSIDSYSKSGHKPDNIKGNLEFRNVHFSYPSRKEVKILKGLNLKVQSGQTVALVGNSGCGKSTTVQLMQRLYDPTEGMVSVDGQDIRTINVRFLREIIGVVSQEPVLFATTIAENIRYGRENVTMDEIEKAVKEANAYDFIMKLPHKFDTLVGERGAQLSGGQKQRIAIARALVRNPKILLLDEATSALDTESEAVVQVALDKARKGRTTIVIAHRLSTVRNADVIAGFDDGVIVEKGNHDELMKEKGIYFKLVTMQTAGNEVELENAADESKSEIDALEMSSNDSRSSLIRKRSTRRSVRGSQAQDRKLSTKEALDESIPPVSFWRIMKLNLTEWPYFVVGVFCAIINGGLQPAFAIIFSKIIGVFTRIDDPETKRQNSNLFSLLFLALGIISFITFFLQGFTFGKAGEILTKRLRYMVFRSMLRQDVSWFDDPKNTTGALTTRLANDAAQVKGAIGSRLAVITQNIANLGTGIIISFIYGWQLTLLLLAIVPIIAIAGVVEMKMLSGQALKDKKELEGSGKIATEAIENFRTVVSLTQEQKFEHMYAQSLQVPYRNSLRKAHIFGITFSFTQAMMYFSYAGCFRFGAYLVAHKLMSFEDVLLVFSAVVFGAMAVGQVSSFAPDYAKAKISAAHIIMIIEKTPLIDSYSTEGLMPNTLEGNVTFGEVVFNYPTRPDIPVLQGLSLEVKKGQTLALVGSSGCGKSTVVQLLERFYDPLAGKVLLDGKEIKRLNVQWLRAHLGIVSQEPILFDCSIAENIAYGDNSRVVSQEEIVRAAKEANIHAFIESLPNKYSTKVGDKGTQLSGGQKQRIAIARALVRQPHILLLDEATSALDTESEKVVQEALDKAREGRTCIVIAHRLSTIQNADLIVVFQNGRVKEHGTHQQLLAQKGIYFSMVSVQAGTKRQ

Activity [1]: inhibitor [+]
SMILES: CCCCCCCCCCCCC/C=C/[C@@H](O)[C@H](CO[C@@H]1O[C@H](CC)[C@H](O)[C@H](O)[C@H]1O)NC(=O)CCCCCC

Activity [2]: inhibitor [+]
SMILES: CCCCCCCCCCCCCCCC(O)C(CO)NC(=O)CCCCCC (centres undefined)

Activity [3]: inhibitor [+]
SMILES: CCCCCCCCCCCCC/C=C/[C@@H](O)[C@H](CO[C@@H]1O[C@H](CC)[C@@H](O)[C@H](O)[C@H]1O)NC(=O)CCCCCC

Activity [4]: inhibitor [+]
SMILES: CCCCCCCCCCCCC/C=C/[C@@H](O)[C@H](CO[C@@H]1O[C@H](CC)[C@@H](O[C@@H]2O[C@H](CO)[C@@H](O)[C@H](O)[C@H]2O)[C@H](O)[C@H]1O)NC(=O)CCCCCC

Reference: ChEMBL document CHEMBL2074108, “Inhibition of P-glycoprotein activity and chemosensitization of multidrug-resistant ovarian carcinoma 2780AD cells by hexanoylglucosylceramide” (Biochem Biophys Res Commun, 1999)
